Tested on: SNU-16 cells
Experiment: Inhibition of FGFR2-dependent cell growth (Cell-titer Glo, 72 hrs)
Conditions: Homo sapiens, SNU-16, 72 h, read-out: SNU16 IC50 values

**Q.** With `C=CC(=O)N1CCN(CCCn2c(=O)c(-c3c(Cl)c(OC)cc(OC)c3Cl)cc3cnc(NC4COC4)nc32)CC1` [Example 66, 8-(3-(4-acryloylpiperazin-1-yl)propyl)-6-(2,6-dichloro-3,5-dimethoxyphenyl)-2-(oxetan-3-ylamino)pyrido[2,3-d]pyrimidin-7(8H)-one] as the compound, how does the IC50 read?
**A.** > 5 µM
